Test results published in PubChem BioAssay (NCI).
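Grown in 96-well plates, cells were treated for 48 hours with each compound at five concentrations. Insufficient inhibition: endpoint recorded as highest concentration tested. GI50: concentration for 50% inhibition of growth. Definition used: TGI = concentration required for complete inhibition of growth.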

test system: SNB-19 CNS; test: NCI tumour cell line growth inhibition, 48 h

`O=C(O)c1ccc(CNCc2ccccc2)cc1` and `FC(F)(F)c1ccc2nc(NCc3ccccc3)c(-c3ccccc3)nc2c1` cannot be ordered by TGI: > 100 µM for the first, > 100 µM for the second.

First: Cc1cc2c(cc1C)[n+](=O)cc(C(=O)C/C(=N/NC(=S)NN)C(=O)Nc1cccc(C(F)(F)F)c1)n2[O-]
Second: CC1=C(C(=O)Nc2ccccc2)C(c2ccc(Cl)c(Cl)c2)C(C(=O)Nc2ccccc2)=C(C)N1
The TGI of the first is higher: > 100 µM for the first, 32.6 µM for the second.

`COCOCCC#CCO` and `COC(=N)c1csc(C2OC(CO)C(O)C2O)n1` (stereo not given) cannot be ordered by TGI: > 100 µM for the first, > 100 µM for the second.

`COc1cc(C[P+](c2ccccc2)(c2ccccc2)c2ccccc2)cc(OC)c1OC` and `CC12c3ccccc3C(OC=O)(c3ccccc31)C1(C)c3ccccc3C2(OC=O)c2ccccc21` cannot be ordered by TGI: > 100 µM for the first, > 100 µM for the second.

`CCCN(CCC)c1c([N+](=O)[O-])cc(C(=O)N(CC)CC)cc1[N+](=O)[O-]` and `CCOC(=O)Cc1csc(Nc2ccccc2[N+](=O)[O-])n1` cannot be ordered by TGI: > 100 µM for the first, > 100 µM for the second.

Going from `CN1Nc2ccccc2CC1=O` to `O=C1C/C(Br)=C\c2ccccc2-c2ccccc21`, the TGI falls from > 100 µM to 19.5 µM.

`CCOc1ccc(OCC(=O)O)c2c1CCCC2=O` and `CCOc1ccc(NC(=O)CC2SC(=Nc3ccc(C)cc3C)NC2=O)cc1` (stereo not given) cannot be ordered by TGI: > 100 µM for the first, > 100 µM for the second.

`Nc1c(S(=O)(=O)c2ccc(Cl)cc2)c2nc3ccccc3nc2n2ccnc12` and `O=C1C=C(Nc2ccc(Cl)cc2C(=O)c2ccccc2)c2ccccc2C1=O` cannot be ordered by TGI: > 100 µM for the first, > 100 µM for the second.

Compared with `CCCCCCCC(=O)OCC1OC(n2cc(F)c(=O)[nH]c2=O)C(N)C(OC(=O)CCCCCCC)C1O` (stereo not given), `O=c1[nH]c(=O)n(C2CC(O)C(CO)O2)cc1OS(=O)(=O)C(F)(F)F` (stereo not given) is higher in TGI: 32 µM for the first, > 100 µM for the second.

First: Oc1oc(C(=C2N=c3ccccc3=N2)c2ccc(Cl)cc2)c(O)c1-c1ccc(Cl)cc1
Second: O=C1C=C(c2c(O)ccc3ccccc23)c2cc(O)ccc2C1=O
The TGI of the first is higher: > 100 µM for the first, 31.3 µM for the second.

`Cc1nc2c(N)ncnc2o1` and `CC(=O)N/C(=C\c1ccccc1/C=C(\NC(C)=O)c1nc2cc(C)c(C)cc2[nH]1)c1nc2cc(C)c(C)cc2[nH]1` cannot be ordered by TGI: > 100 µM for the first, > 100 µM for the second.

Going from `CCCCCCCCCCCC[N+]12CC[N+](CCN)(CC1)CC2` to `Cc1cc(C)nc(NS(=O)(=O)c2ccc(Nc3c4ccccc4nc4c(C(=O)N5CCN(CCO)CC5)cccc34)cc2)n1`, the TGI rises from 64.3 µM to > 100 µM.

`CC[C@@H]1NC(C(=O)OC)Cc2c1[nH]c1ccccc21` (stereo not given in full) and `O=C(c1ccc([N+](=O)[O-])cc1[N+](=O)[O-])N(/N=C/C=C/c1ccccc1)c1nnc(-c2ccccc2)c(-c2ccccc2)n1` cannot be ordered by TGI: > 100 µM for the first, > 100 µM for the second.

test system: SW-620 colon; test: NCI tumour cell line growth inhibition, 48 h

`O=Cc1cc2c(cc1-c1cc3c(cc1C=O)OCO3)OCO2` and `COc1cc(OC)c(OC)cc1/C=N/NC(=O)N/N=C/c1cc(OC)c(OC)cc1OC` cannot be ordered by TGI: > 100 µM for the first, > 100 µM for the second.

`CN(C)CCNC(=O)Cc1ccccc1Nc1c(Cl)cccc1Cl` and `CC1=C(C(=O)Nc2ccccc2)C(c2ccc(Cl)c(Cl)c2)C(C(=O)Nc2ccccc2)=C(C)N1` are within 1.5-fold of each other in TGI: 34.5 µM for the first, 34.7 µM for the second.

`O/N=C1\CCCCC1C(NO)c1ccccc1` (stereo not given) and `O=C(O)c1ccc(CNCc2ccccc2)cc1` cannot be ordered by TGI: > 100 µM for the first, > 100 µM for the second.

`C[N+](C)(C)CC(=O)N/N=C(/Cc1cc(=O)oc2cc(O)ccc12)C(=O)Nc1ccc(Cl)cc1` and `CCOc1ccc(NC(=O)CC2SC(=Nc3ccc(C)cc3C)NC2=O)cc1` (stereo not given) cannot be ordered by TGI: > 100 µM for the first, > 100 µM for the second.

`O=S(=O)(OI(OI(OS(=O)(=O)C(F)(F)F)c1ccccc1)c1ccccc1)C(F)(F)F` and `FC(F)(F)c1ccc2nc(NCc3ccccc3)c(-c3ccccc3)nc2c1` cannot be ordered by TGI: > 100 µM for the first, > 100 µM for the second.

First: Cc1cc2c(cc1C)[n+](=O)cc(C(=O)C/C(=N/NC(=S)NN)C(=O)Nc1cccc(C(F)(F)F)c1)n2[O-]
Second: CC(=O)N/C(=C\c1ccccc1/C=C(\NC(C)=O)c1nc2cc(C)c(C)cc2[nH]1)c1nc2cc(C)c(C)cc2[nH]1
The TGI of the first is higher: > 100 µM for the first, 64.7 µM for the second.

`COCOCCC#CCO` and `COC(=N)c1csc(C2OC(CO)C(O)C2O)n1` (stereo not given) cannot be ordered by TGI: > 100 µM for the first, > 100 µM for the second.

`COc1cc(C[P+](c2ccccc2)(c2ccccc2)c2ccccc2)cc(OC)c1OC` and `CC12c3ccccc3C(OC=O)(c3ccccc31)C1(C)c3ccccc3C2(OC=O)c2ccccc21` cannot be ordered by TGI: > 100 µM for the first, > 100 µM for the second.

Compared with `CCCN(CCC)c1c([N+](=O)[O-])cc(C(=O)N(CC)CC)cc1[N+](=O)[O-]`, `CCOC(=O)Cc1csc(Nc2ccccc2[N+](=O)[O-])n1` is higher in TGI: 84.1 µM for the first, > 93.1 µM for the second.

Compared with `CN1Nc2ccccc2CC1=O`, `O=C1C/C(Br)=C\c2ccccc2-c2ccccc21` is lower in TGI: > 100 µM for the first, 2.98 µM for the second.

`CCOc1ccc(OCC(=O)O)c2c1CCCC2=O` and `CC[C@@H]1NC(C(=O)OC)Cc2c1[nH]c1ccccc21` (stereo not given in full) cannot be ordered by TGI: > 100 µM for the first, > 100 µM for the second.

Going from `CCCCCCCC(=O)OCC1OC(n2cc(F)c(=O)[nH]c2=O)C(N)C(OC(=O)CCCCCCC)C1O` (stereo not given) to `O=c1[nH]c(=O)n(C2CC(O)C(CO)O2)cc1OS(=O)(=O)C(F)(F)F` (stereo not given), the TGI rises from 33.6 µM to > 100 µM.

First: Oc1oc(C(=C2N=c3ccccc3=N2)c2ccc(Cl)cc2)c(O)c1-c1ccc(Cl)cc1
Second: O=C1C=C(c2c(O)ccc3ccccc23)c2cc(O)ccc2C1=O
The TGI of the first is 2-fold higher: 68.3 µM for the first, 34.3 µM for the second.

`Cc1nc2c(N)ncnc2o1` and `Cc1cc(C)nc(NS(=O)(=O)c2ccc(Nc3c4ccccc4nc4c(C(=O)N5CCN(CCO)CC5)cccc34)cc2)n1` cannot be ordered by TGI: > 100 µM for the first, > 100 µM for the second.

`CCCCCCCCCCCC[N+]12CC[N+](CCN)(CC1)CC2` and `O=C1C=C(Nc2ccc(Cl)cc2C(=O)c2ccccc2)c2ccccc2C1=O` cannot be ordered by TGI: > 100 µM for the first, > 100 µM for the second.

With `O=C(c1ccc([N+](=O)[O-])cc1[N+](=O)[O-])N(/N=C/C=C/c1ccccc1)c1nnc(-c2ccccc2)c(-c2ccccc2)n1` the TGI was > 100 µM.

test system: HCT-116 colon; test: NCI tumour cell line growth inhibition, 48 h

`O=Cc1cc2c(cc1-c1cc3c(cc1C=O)OCO3)OCO2` and `COc1cc(OC)c(OC)cc1/C=N/NC(=O)N/N=C/c1cc(OC)c(OC)cc1OC` cannot be ordered by TGI: > 100 µM for the first, > 100 µM for the second.

Compared with `CN(C)CCNC(=O)Cc1ccccc1Nc1c(Cl)cccc1Cl`, `O=C(O)c1ccc(CNCc2ccccc2)cc1` is higher in TGI: 31.2 µM for the first, > 100 µM for the second.

`O/N=C1\CCCCC1C(NO)c1ccccc1` (stereo not given) and `CN1Nc2ccccc2CC1=O` cannot be ordered by TGI: > 100 µM for the first, > 100 µM for the second.

`C[N+](C)(C)CC(=O)N/N=C(/Cc1cc(=O)oc2cc(O)ccc12)C(=O)Nc1ccc(Cl)cc1` and `Cc1cc2c(cc1C)[n+](=O)cc(C(=O)C/C(=N/NC(=S)NN)C(=O)Nc1cccc(C(F)(F)F)c1)n2[O-]` cannot be ordered by TGI: > 100 µM for the first, > 100 µM for the second.

Going from `COC(=O)c1c2c(c(C)[n+]([O-])c1C)C(=O)C(NCc1ccc(Br)cc1)=CC2=O` to `Nc1c(S(=O)(=O)c2ccc(Cl)cc2)c2nc3ccccc3nc2n2ccnc12`, the TGI rises from 3.77 µM to > 100 µM.

`O=S(=O)(OI(OI(OS(=O)(=O)C(F)(F)F)c1ccccc1)c1ccccc1)C(F)(F)F` and `FC(F)(F)c1ccc2nc(NCc3ccccc3)c(-c3ccccc3)nc2c1` cannot be ordered by TGI: > 100 µM for the first, > 100 µM for the second.

`COCOCCC#CCO` and `COC(=N)c1csc(C2OC(CO)C(O)C2O)n1` (stereo not given) cannot be ordered by TGI: > 100 µM for the first, > 100 µM for the second.

First: COc1cc(C[P+](c2ccccc2)(c2ccccc2)c2ccccc2)cc(OC)c1OC
Second: CCCN(CCC)c1c([N+](=O)[O-])cc(C(=O)N(CC)CC)cc1[N+](=O)[O-]
The TGI of the first is higher: > 100 µM for the first, 27.2 µM for the second.

For `CCCCCCCC(=O)OCC1OC(n2cc(F)c(=O)[nH]c2=O)C(N)C(OC(=O)CCCCCCC)C1O` (stereo not given), the TGI was 34.6 µM.

In the case of `COC(=O)c1c2c(c(C)[n+]([O-])c1C)C(=O)C(NCc1ccc(Br)cc1)=CC2=O`, the GI50 is reported as 1.23 µM.
